Test results published in patent US5093134A, “Method of treating HIV infection using polyoxometallates” (Johnson Matthey Public Limited Company, priority 1989, dated 1992).
“And” between values parts separate entries of the source, which are not always exact repeats. Equal values may be shown once.

Assays:
HIV = details: in words; cited from earlier work
HIV-1 (HTLV-IIIB) = experiment: microbe, parasite or virus in culture; type: cell-based; details: for Selectivity Index (SI), ratio of CD50 to ED50 / ED50: HIV-1, MT-4 cells; for ED50: 100 CCID50, 5 days, MTT
Experimental: (§1) The compounds were tested in a screen by the MTT method (J. Virol. Methods […]: 309-321 [1988]). MT-4 cells (2.5×10^4 /well) were infected with HIV-1 (HTLV-IIIB) or HIV-2 (LAV-2 ROD) at a concentration of 100 CCID50 and incubated in the presence of various concentrations of the test compounds, which were added immediately after infection with the virus. After 5 days culture at 37° C. in a CO2 incubator, the number of viable cells was assessed by the MTT (tetrazolium) method. […] The potential therapeutic usefulness was assessed by calculating a Selectivity Index (SI) corresponding to the ratio of CD50 to ED50.

HIV-2 (LAV-2 ROD) = experiment: MTT screen of HIV-2 infected MT-4 cells (antiviral activity); type: cell-based; details: for ED50: 100 CCID50, 5 days, MTT
Experimental: as §1

MT-4 cells = experiment: in vitro
Experimental: as §1

reverse transcriptase = details: in words; cited from earlier work
herpes virus = details: in words; cited from earlier work
in vitro = details: human, mt-4 cells
Experimental: as §1

cells = details: in words; cited from earlier work

| Compound | Selectivity Index (SI), ratio of CD50 to ED50 (HIV-1 (HTLV-IIIB)) | ED50 (HIV-1 (HTLV-IIIB)) [µg/mL] | Selectivity Index (SI), ratio of CD50 to ED50 (HIV-2 (LAV-2 ROD)) | ED50 (HIV-2 (LAV-2 ROD)) [µg/mL] | further results |
| --- | --- | --- | --- | --- | --- |
| silicotungstate acid [H4 SiW12 O40] |  |  |  |  | activity against HIV (HIV): activity against HIV |
| (C5 H5 NH^+)6 [SiCo(C5 H5 N)W11 O39 ]yH2 O [Compound A] | > 502 | 1.99 | > 415 | 2.41 | CD50 (MT-4 cells; human, mt-4 cells, 120 h): > 1000.0 µg/mL |
| K6 [BRh(OH2)W11 O39 ]14H2 O | 97 | 5.88 | 18 | 31.58 |  |
| K6 [SiNi(OH2)W11 O39 ]15H2 O | 103 | 1.93 | 55 | 3.58 | CD50 (MT-4 cells; human, mt-4 cells, 120 h): 198.43 µg/mL |
| K5 [SiGa(OH2)W11 O39 ]yH2 O | 100 | 1.06 | 14 | 6.19 |  |
| NaSb9 W21 O86 [HPA-23, reference compound] | 3 | 2.8 | < 1 | > 4 | CD50 (MT-4 cells; HIV-1, MT-4 cells, 5 days, 37° C., MTT): 7.4 µg/mL; CD50 (MT-4 cells; HIV-2, MT-4 cells, 5 days, 37° C., MTT): 2.4 µg/mL; reverse transcriptase inhibition (reverse transcriptase): reverse transcriptase inhibitor |
| K5 [PNi(OH2)W11 O39 ]14H2 O | < 1 | > 250.0 | < 1 | > 250.0 |  |
| K5 [BPt(OH2)W11 O39 ]yH2 O | 198 | 1.66 | 49 | 6.21 |  |
| K7 PW10 Ti2 O40 |  |  |  |  | activity against herpes virus (herpes virus): activity against herpes virus |
| K7 [BCo(OH2)W11 O39 ]yH2 O | 47 | 2.74 | < 1 | > 200.0 |  |
| K13 [Ce(SiW11 O39)2 ]26H2 O | > 2561 | 0.39 | > 6357 | 0.157 | CD50 (MT-4 cells; human, mt-4 cells, 120 h): > 1000.0 µg/mL |
| K6 [SiCo(OH2)W11 O39 ]yH2 O | > 52 | < 2.0 | > 15 | < 2.0 |  |
| K6 [BGa(OH2)W11 O39 ]yH2 O | 5151 | 0.12 | 298 | 1.62 |  |
| K7 [BCu(OH2)W11 O39 ]yH2 O | 32 | 3.51 | 62 | 2.56 |  |
| Cc1cn([C@H]2C[C@H](N=[N+]=[N-])[C@@H](CO)O2)c(=O)[nH]c1=O [AZT, reference compound] | 125 and > 125 |  |  |  | EC50 (HIV-1 (HTLV-IIIB); Human immunodeficiency virus 1, IIIB, MT4, 120 h, read-out: ED50): < 8 nM; CC50 at 120 h (in vitro): > 1000 nM; toxicity (in words) (MT-4 cells): rather high toxicity; toxicity to cells (cells): high toxicity to cells |
| ((CH3)3 NH^+)5 [SiSn(CH3)W11 O39 ]yH2 O [Compound C] | 40 | 0.57 | 19 | 3.48 |  |
| K6 [SiCu(OH2)W11 O39 ]yH2 O | > 84 | < 2.0 | > 125 | < 2.0 |  |
| (C6 H11 NH3^+)6 [SiCo(C6 H11 NH2)W11 O39 ]yH2 O [Compound B] | 99 | 0.98 | 26 | 3.01 |  |
| K5 [PCu(OH2)W11 O39 ]yH2 O | > 82 | 3.04 | > 68 | < 2.0 |  |
| K5 BW12 O40 |  |  |  |  | activity against herpes virus (herpes virus): activity against herpes virus |
